According to ChEMBL document CHEMBL3507680, “University of Dundee, Gates Library screen for HepG2 cell viability”:

Experiment: Human HepG2 cell viability assay in 384 well format
Format: toxicity, cell-based
Set-up: dose 125 nL, time 70.5 hour; cytotoxicity at 70.5 h: concentration not given beside the values
Details: HepG2 cells, read-out: Inhibition

Row | Compound | cytotoxicity at 70.5 h [%]
1 | NC(=O)C1CCN(C(=O)c2ccccc2OCc2ccccc2Cl)CC1 | 12.3
2 | O=S(=O)(N1CCCCCC1)N1CCc2sccc2C1 | -5.4
3 | O=S(=O)(N1CCCCCC1)N1CCN(Cc2ccc(F)cc2Br)CC1 | -4.85
4 | Cc1cc(C(=O)NCCN2CCCc3ccccc32)[nH]n1 | 22.8
5 | CN(C)c1nc(N)nc(CSCCC(=O)Nc2ccc(F)cc2)n1 | -7.07
6 | Cc1ccc(S(=O)(=O)NCc2cnn(C)c2)c(F)c1 | -3.12
7 | Cc1nn(CC(C)C)c(N(C)C)c1CNCCC(=O)NC(C)C | 23
8 | Cn1cc(NC(=O)CCCc2cccs2)c(=O)n(C)c1=O | 5.9
9 | Cc1ncc(Cl)c(C(=O)N2CC(=O)N(C)c3ccccc32)n1 | -9.43
10 | CNS(=O)(=O)CC(=O)N(Cc1ccsc1)c1ccccc1 | -8.25
11 | COCCOCC(=O)NC(C#N)c1cc(Cl)cc(Cl)c1 (configuration not stated) | 19.4
12 | Cn1ccnc1-c1noc(NCc2ccc3c(c2)OCCO3)n1 | 8.69
13 | CN(C)c1nccc(N(C)Cc2nc3ccccc3n2C)n1 | 10.9
14 | N#Cc1nccnc1N1CCC(Cc2ccccc2)C1 (configuration not stated) | -3.44
15 | Cc1nc(C2CCCN2Cc2cc(Cl)c3c(c2)OCCCO3)no1 (configuration not stated) | -7.15
16 | O=C(C1CCCN(Cc2cccc(F)c2)C1)N1CCc2sccc2C1 (configuration not stated) | 0.518
17 | N#Cc1nccnc1N1CCC(COCc2ccccc2)C1 (configuration not stated) | -4.27
18 | Cc1ccc(C2CN(Cc3cnc(-c4cccnc4)s3)CCO2)o1 (configuration not stated) | 7.31
19 | Cc1nc(CN(C)C(=O)NC(C)c2ccc3c(c2)OCCO3)cs1 (configuration not stated) | 36.4
20 | Cc1cc(F)ccc1N1CCCC(NC2CCOCC2)C1=O (configuration not stated) | 31.7
21 | COC(=O)CN(C(=O)c1ccc(-n2ccnc2)cc1)C1CCCC1 | 27.9
22 | CC(C)CC(NC(=O)c1ccn(C)c(=O)c1)c1ccccc1 (configuration not stated) | 33.2
23 | Cc1nc(CNC(=O)NC(C)c2ccc3c(c2)OCCO3)cs1 (configuration not stated) | 53.9
24 | Cc1nc(CNC(=O)NC(C)c2ccc3c(c2)OCCCO3)cs1 (configuration not stated) | -0.884

Row | Compound | cytotoxicity at 70.5 h [%]
25 | CC(C)CC(NC(=O)c1ccn(C)c(=O)c1)c1cccs1 (configuration not stated) | 33.9
26 | Cn1ccc(C(=O)N2CCN(Cc3ccccc3F)CC2)cc1=O | -0.663
27 | CC(C)CNC(=O)CNC(=O)Nc1cccc(Cl)c1-n1cccn1 | 1.42
28 | N#CCCN(CC1CC1)Cn1cc(Cl)cn1 | 34.6
29 | CN(C)C(=O)CCNC(=O)Nc1cccc(Cl)c1-n1cccn1 | 1.32
30 | CC(C)CC(CC(C)C)NC(=O)c1ccn(C)c(=O)c1 | 1.9
31 | O=C(NCCC1CCN(CC(F)(F)F)CC1)C1CCOC1 (configuration not stated) | 3.01
32 | O=C(Nc1cccn(Cc2ccc(F)cc2)c1=O)c1cnc[nH]1 | -3.1
33 | CC(=O)NS(=O)(=O)c1ccc(F)cc1C(F)(F)F | 33.1
34 | CS(=O)(=O)c1ccccc1NCc1ccc(Cn2ccnc2)cc1 | -0.289
35 | COc1cccc(S(=O)(=O)Cc2noc(CC(C)C)n2)c1 | -4.78
36 | CN(C)C(CNCc1nc(-c2ccsc2)no1)c1cccc(F)c1 (configuration not stated) | -10.2
37 | COc1cccc(C2=CCN(CCN3CCCC3=O)CC2)c1 | -7.88
38 | Cc1oc(-c2ccsc2)nc1CNC(C)Cn1cccn1 (configuration not stated) | 11.6
39 | CN1CC(C(=O)NCc2cccnc2OCC(F)(F)F)CC1=O (configuration not stated) | -2.61
40 | CN(CCS(=O)(=O)c1cc(Cl)ccc1Cl)CC(N)=O | -0.37
41 | CCOC(=O)C1CCN(C(=O)Cc2c(C)nc(C)[nH]c2=O)CC1 | 12.3
42 | CC(C)N(CC(N)=O)Cc1cccc(Br)c1 | 1.5
43 | Cc1nc(-c2ccc(Cl)s2)sc1C(=O)N(C)CC(N)=O | 11.9
44 | CC(C)N(CC(N)=O)Cc1cccc(C(F)(F)F)c1 | -1.84
45 | Cc1nc(C)c(CC(=O)N2CCN(CC(C)C)CC2)c(=O)[nH]1 | 2.2
46 | CCOC(=O)N1CCN(C(=O)Cc2c(C)nc(C)[nH]c2=O)CC1 | 13.6
47 | CCc1ccc(C(C)NC(=O)c2ccc(CS(C)(=O)=O)o2)cc1 (configuration not stated) | -4.79
48 | Cc1cccc(C)c1NCc1noc(C2CC2)n1 | 0.946

Row | Compound | cytotoxicity at 70.5 h [%]
49 | c1ccc2c(NCC3(N4CCOCC4)CCSC3)ncnc2c1 (configuration not stated) | 2.49
50 | Cc1nc(S(=O)(=O)CCn2cccn2)n(C2CCCC2)c1C | 10.5
51 | Cc1nc(S(=O)(=O)CCn2cccn2)n(CC2CCCO2)c1C (configuration not stated) | -2.87
52 | CCCN(C)CC1CCN(c2ncc(Br)cn2)C1 (configuration not stated) | 2.13
53 | CC(C1CC1)N(CC(=O)NC(=O)NC1CC1)C1CC1 (configuration not stated) | -3.17
54 | Cc1oc(-c2ccsc2)nc1CNCCn1cccn1 | -5.13
55 | Cc1ncsc1CNC(=O)N(Cc1ccccc1)CC(C)(C)O | -3.17
56 | Cc1cccc(C(C)CNC(=O)N2CCOCC3(CCOCC3)C2)c1 (configuration not stated) | -4.47
57 | COc1cc(I)c(Cl)cc1C(=O)N(C)C | -20.5
58 | CCOc1cc(CNC(=O)c2cnn(CC)c2C(F)(F)F)ccn1 | -12.6
59 | CCOc1ccccc1CNC(=O)c1cnn(CC)c1C(F)(F)F | 17.5
60 | CNC(=O)CN(C)C(=O)c1cc(Cl)c(I)cc1OC | -18.4
61 | Cc1ccc(C)n1-c1c(C(=O)NCC(C)Cn2cccn2)cnn1C (configuration not stated) | -21.4
62 | CN(Cc1nnc(C2CC2)n1C)S(=O)(=O)Cc1ccccc1F | -20.7
63 | CN(Cc1nnc(C2CC2)n1C)S(=O)(=O)c1ccc(F)c(C#N)c1 | -23.4
64 | CN(Cc1nnc(-c2ccco2)o1)C(C(N)=O)c1cccc(F)c1 (configuration not stated) | 0.238
65 | Cn1nnnc1SCC1Cc2ccccc2O1 (configuration not stated) | 26.1
66 | COCCCn1ccc(NS(=O)(=O)c2cc(C)c(F)cc2F)n1 | -15.7
67 | Cc1cnccc1CCNC(=O)Nc1cnc(N(C)C)nc1 | 25.9
68 | COc1ccccc1CC(=O)NC1CCCc2cn[nH]c21 (configuration not stated) | -0.577
69 | Cc1ccc(CCCC(=O)N2CCN(C3CCCN(C)C3)CC2)s1 (configuration not stated) | -2.97
70 | CC(=O)c1c(F)cccc1NCC(O)C1CC1 (configuration not stated) | -19.1
71 | CN(Cc1nnc(C2CC2)n1C)S(=O)(=O)c1ccccc1C#N | -15.5
72 | Cc1cnc(CN(Cc2cccc(O)c2)CC2CC2)cn1 | -6.41

Row | Compound | cytotoxicity at 70.5 h [%]
73 | Cc1cnc(CN(Cc2ccccc2)CC2CCOCC2)cn1 | -3.35
74 | CC(=O)c1c(F)cccc1NCC(O)c1ccc(F)c(F)c1 (configuration not stated) | -12.6
75 | CCC1CN(C(=O)COc2ccc(NC(C)=O)cc2)CCO1 (configuration not stated) | 13.7
76 | CN1CCC(CNC(=O)c2ccc(O)nc2)c2ccccc21 (configuration not stated) | 1.07
77 | CC(C)CCC(=O)Nc1ncn(CC(=O)N2CCCCCC2)n1 | -2.61
78 | CCn1c(CN2CCCC(Cn3cncn3)C2)nc2c(F)cccc21 (configuration not stated) | 1.73
79 | CCc1noc(CN(C)CCC(=O)Nc2ccc(C#N)c(Cl)c2)n1 | 0.733
80 | CCn1c(CN2CCOC(Cn3cncn3)C2)nc2c(F)cccc21 (configuration not stated) | 15.4
81 | COc1ccc(C(=O)NS(C)(=O)=O)cc1-c1ccccc1 | -1.59
82 | Cc1nc(-c2cccc(C(=O)N(C)C)c2)cs1 | 1.56
83 | COc1ccccc1C(C)CNC(=O)c1[nH]ncc1Br (configuration not stated) | 3.61
84 | Cc1ccc2c(c1)C(NC1CCN(C)CC1)CCCO2 (configuration not stated) | 15.4
85 | Cc1ccc(CNCCCNS(C)(=O)=O)c(Br)c1 | 4
86 | O=S(=O)(Nc1ccon1)c1cc(Cl)cc2c1OCC2 | 1.46
87 | CCC(C)(NCc1nc(C)c(C)o1)c1nccs1 (configuration not stated) | 15.6
88 | COc1ccc(CN2CCC3(CC(C(=O)NCC(C)C)=NO3)C2)cc1 (configuration not stated) | -6.44
89 | CC(C)CNC(=O)C1=NOC2(CCN(Cc3ccc(C(C)C)cc3)C2)C1 (configuration not stated) | -1.12
90 | CN(C)C(=O)N1Cc2nnn(CC3CC3)c2C(COCC2CC2)C1 (configuration not stated) | -6.92
91 | O=S(=O)(C1CC1)N1CCc2c(CN3CCOCC3)cncc2C1 | -2.38
92 | CS(=O)(=O)N1CCOCC12CCN(Cc1ccoc1)CC2 | -5.63
93 | COCC(=O)N1CCC2(C1)c1ccccc1S(=O)(=O)N2C (configuration not stated) | -9.08
94 | CC(=O)N1CCC2(C1)c1ccccc1S(=O)(=O)N2C (configuration not stated) | -7.77
95 | COCC(=O)N1CCC2(C1)c1ccccc1S(=O)(=O)N2CC1CC1 (configuration not stated) | -8.07
96 | CCCS(=O)(=O)N1Cc2nccn2CC(Cn2cncn2)C1 (configuration not stated) | 20.3

Row | Compound | cytotoxicity at 70.5 h [%]
97 | CC(C)CS(=O)(=O)N1C[C@H]2C[C@H](C(=O)N3CCCC3)[C@@H](C1)O2 | 0.165
98 | CC(C)CS(=O)(=O)N1C[C@H]2C[C@H](C(=O)N(C)C)[C@@H](C1)O2 | -1.1
99 | Cc1oncc1C(=O)N1CC[C@H]2[C@@H]1CCC(=O)N2CC1CC1 | 2.95
100 | O=C(c1ccccn1)N1CCc2ncnc(-c3ccncc3)c2CC1 | -0.573
101 | CCS(=O)(=O)N1Cc2nccn2CC(Cn2cncn2)C1 (configuration not stated) | 0.16
102 | NC(CC1CCCCC1)c1ccccc1 (configuration not stated) | 5.79
103 | CC(C)N(CC(=O)O)Cc1cccc(Br)c1 | 2.77
104 | O=C(O)CN1CCC(C(F)(F)F)CC1 | -2.76
105 | CC(C)CN1CCO[C@H]2CCN(c3cnccn3)CC[C@@H]21 | -8.81
106 | Cc1csc([C@@H]2C[C@H]3CN(c4ncc(F)cn4)C[C@H]3O2)n1 | -2.24
107 | CS(=O)(=O)N1CCOCC12CCN(Cc1ccc(F)cc1)CC2 | -6.42
108 | CNC(=O)COC1COC2(CCN(Cc3ccncc3F)CC2)C1 (configuration not stated) | -18
109 | Fc1cccc(CN2CCC3(CCN3c3ncccn3)C2)c1 (configuration not stated) | -8.53
110 | Cc1ccc(N2C[C@@H]3OCCN(CC4CC4)[C@@H]3C2)nn1 | -7.81
111 | CNC(=O)COC1COC2(CCN(Cc3cccnc3OC)CC2)C1 (configuration not stated) | -8.67
112 | CS(=O)(=O)NC[C@H]1OC[C@@H]2CCN(CCc3ccccc3)C[C@@H]21 | 17.3
113 | O=C(c1ccno1)N1CCc2ncnc(-c3ccncc3)c2CC1 | 1.37
114 | Cc1ccc(N2Cc3cnn(C)c3C(COCC3CC3)C2)nn1 (configuration not stated) | -4.86
115 | CCOCC1CN(c2ccc(C)nn2)Cc2cnn(CC)c21 (configuration not stated) | -5.73
116 | CCn1ncc2c1C(COCC1CC1)CN(c1ccc(C)nn1)C2 (configuration not stated) | -10.4
117 | O=S(=O)(C1CC1)N1CCC2(CCCN(Cc3ccccn3)C2)C1 (configuration not stated) | -0.34
